Assay results as given in paper PMC8580884, “A Novel System for Evaluating the Inhibition Effect of Drugs on Cytochrome P450 Enzymes in vitro Based on Human-Induced Hepatocytes (hiHeps)” (Frontiers in Pharmacology, 2021).

How the values were obtained:
[1] = biological target: T1, CYP2B6 (Homo sapiens, UniProt P20813); assay: intact hiHeps cells, metabolite by UPLC-MS/MS, Lineweaver-Burk; type: cell-based; settings: hepatocytes
T1 construct: native enzyme in human liver microsomes (IC50) or human-induced hepatocytes hiHeps (Km); read by bupropion to hydroxybupropion
T1 sequence (P20813 1-491): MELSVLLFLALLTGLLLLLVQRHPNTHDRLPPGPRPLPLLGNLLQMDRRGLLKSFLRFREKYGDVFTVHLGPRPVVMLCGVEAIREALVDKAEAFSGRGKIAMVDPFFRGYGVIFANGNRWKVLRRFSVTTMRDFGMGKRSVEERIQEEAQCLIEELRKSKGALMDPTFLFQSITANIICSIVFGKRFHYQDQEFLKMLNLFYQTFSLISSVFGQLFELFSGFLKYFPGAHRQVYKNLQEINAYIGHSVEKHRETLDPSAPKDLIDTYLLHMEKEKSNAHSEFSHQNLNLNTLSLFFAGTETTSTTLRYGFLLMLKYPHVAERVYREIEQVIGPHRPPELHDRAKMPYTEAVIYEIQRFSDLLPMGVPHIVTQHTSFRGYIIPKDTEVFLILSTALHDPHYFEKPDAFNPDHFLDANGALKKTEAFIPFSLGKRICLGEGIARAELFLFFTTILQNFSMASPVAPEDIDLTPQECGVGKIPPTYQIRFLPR

[2] = biological target: T2, CYP2C19 (Homo sapiens, UniProt P33261); assay: human liver microsomes, cocktail probe assay, UPLC-MS/MS; type: biochemical; settings: read-out: IC50 (μM) / HLM
T2 construct: native enzyme in human liver microsomes (IC50) or human-induced hepatocytes hiHeps (Km)
Source text: human liver microsomes, cocktail probe assay, UPLC-MS/MS on CYP2C19

[3] = biological target: T3, CYP3A4 (Homo sapiens, UniProt P08684); assay: as above; type: biochemical; settings: 10 μM midazolam in five-probe cocktail, NADPH, MgCl2, alamethicin, 37°C, 60 min; read-out: IC50 (μM) / HLM
T3 construct: native enzyme in human liver microsomes (IC50) or human-induced hepatocytes hiHeps (Km); read by midazolam to 1'-hydroxymidazolam (CYP3A5 may contribute)
Source text: human liver microsomes, cocktail probe assay, UPLC-MS/MS on CYP3A4

[4] = biological target: T4, CYP1A2 (Homo sapiens, UniProt P05177); assay: as above; type: biochemical; settings: read-out: IC50 (μM) / HLM
T4 construct: native enzyme in pooled human liver microsomes (IC50) or human-induced hepatocytes hiHeps (Km); read by phenacetin to acetaminophen
T4 sequence (P05177 2-516): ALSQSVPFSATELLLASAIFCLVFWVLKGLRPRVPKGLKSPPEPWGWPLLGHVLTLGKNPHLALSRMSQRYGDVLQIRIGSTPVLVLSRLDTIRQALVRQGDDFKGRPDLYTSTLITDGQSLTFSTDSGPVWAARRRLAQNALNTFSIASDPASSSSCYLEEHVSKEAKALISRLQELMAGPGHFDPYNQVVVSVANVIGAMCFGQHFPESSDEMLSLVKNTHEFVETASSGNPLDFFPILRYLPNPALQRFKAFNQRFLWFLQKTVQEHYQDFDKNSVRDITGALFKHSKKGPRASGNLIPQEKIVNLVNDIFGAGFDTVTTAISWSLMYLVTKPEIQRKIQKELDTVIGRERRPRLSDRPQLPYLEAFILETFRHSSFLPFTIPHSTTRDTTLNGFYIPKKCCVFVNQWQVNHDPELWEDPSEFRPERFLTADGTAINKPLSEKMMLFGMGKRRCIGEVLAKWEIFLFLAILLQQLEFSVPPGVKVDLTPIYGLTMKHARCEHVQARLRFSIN
Source text: human liver microsomes, cocktail probe assay, UPLC-MS/MS on CYP1A2

[5] = biological target: T1, CYP2B6; assay: as above; type: biochemical; settings: read-out: IC50 (μM) / HLM
Source text: human liver microsomes, cocktail probe assay, UPLC-MS/MS on CYP2B6

[6] = biological target: T5, CYP2C9 (Homo sapiens, UniProt P11712); assay: intact hiHeps cells, metabolite by UPLC-MS/MS, Lineweaver-Burk; type: cell-based; settings: hepatocytes
T5 construct: native enzyme in human liver microsomes (IC50) or human-induced hepatocytes hiHeps (Km); read by diclofenac to 4'-hydroxydiclofenac

[7] = biological target: T3, CYP3A4; assay: as above; type: cell-based

T3 sequence (P08684 2-503): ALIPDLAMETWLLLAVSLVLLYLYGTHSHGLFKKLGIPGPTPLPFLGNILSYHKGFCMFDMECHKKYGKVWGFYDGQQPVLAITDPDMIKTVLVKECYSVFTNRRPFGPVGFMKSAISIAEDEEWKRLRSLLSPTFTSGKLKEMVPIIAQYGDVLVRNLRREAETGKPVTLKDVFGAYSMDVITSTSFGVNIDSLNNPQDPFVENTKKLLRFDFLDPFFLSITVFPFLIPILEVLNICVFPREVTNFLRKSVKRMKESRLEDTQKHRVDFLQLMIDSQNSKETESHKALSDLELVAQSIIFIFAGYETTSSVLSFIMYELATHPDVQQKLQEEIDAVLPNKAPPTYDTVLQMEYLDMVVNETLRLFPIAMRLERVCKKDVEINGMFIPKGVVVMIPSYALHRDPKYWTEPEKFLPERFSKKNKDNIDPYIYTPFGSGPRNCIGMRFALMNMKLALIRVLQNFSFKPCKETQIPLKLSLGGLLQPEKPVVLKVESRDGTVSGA
T2 sequence (P33261 whole entry): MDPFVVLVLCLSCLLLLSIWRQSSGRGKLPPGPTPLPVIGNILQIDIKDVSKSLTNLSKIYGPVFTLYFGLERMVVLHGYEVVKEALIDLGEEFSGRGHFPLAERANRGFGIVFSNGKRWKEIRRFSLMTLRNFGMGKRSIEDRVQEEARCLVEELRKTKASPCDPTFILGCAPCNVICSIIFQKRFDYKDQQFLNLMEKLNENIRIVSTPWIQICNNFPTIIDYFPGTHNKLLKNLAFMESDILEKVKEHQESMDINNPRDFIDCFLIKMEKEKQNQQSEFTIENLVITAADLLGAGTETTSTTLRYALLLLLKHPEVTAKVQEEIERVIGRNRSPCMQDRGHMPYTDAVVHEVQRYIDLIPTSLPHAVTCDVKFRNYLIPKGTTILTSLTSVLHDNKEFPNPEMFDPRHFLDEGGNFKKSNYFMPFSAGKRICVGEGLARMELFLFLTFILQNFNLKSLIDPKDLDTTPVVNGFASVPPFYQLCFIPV
T5 sequence (P11712 whole entry): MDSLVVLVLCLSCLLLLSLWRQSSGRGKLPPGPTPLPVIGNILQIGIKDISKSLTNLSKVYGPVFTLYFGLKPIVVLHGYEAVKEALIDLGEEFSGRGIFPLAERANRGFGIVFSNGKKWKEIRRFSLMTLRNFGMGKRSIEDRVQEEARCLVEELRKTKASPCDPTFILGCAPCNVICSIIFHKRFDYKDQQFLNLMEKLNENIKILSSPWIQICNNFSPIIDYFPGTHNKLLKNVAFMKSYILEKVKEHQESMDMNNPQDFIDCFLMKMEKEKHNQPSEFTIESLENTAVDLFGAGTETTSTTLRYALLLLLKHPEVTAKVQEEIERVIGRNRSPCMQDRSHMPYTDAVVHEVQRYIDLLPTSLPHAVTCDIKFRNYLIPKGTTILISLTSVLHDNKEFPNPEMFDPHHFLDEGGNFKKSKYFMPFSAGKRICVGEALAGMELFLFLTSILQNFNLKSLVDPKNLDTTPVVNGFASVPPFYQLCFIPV

**Q.** Which Km [1] does the source give for `CC(NC(C)(C)C)C(=O)c1cccc(Cl)c1` (stereo not shown) [bupropion] here?
**A.** Its Km is 151 µM.

**Q.** `COc1cc(/C=C/C(=O)CC(=O)/C=C/c2ccc(O)c(OC)c2)ccc1O` [curcumin] was tested. Which IC50 [2] did it give?
**A.** Its IC50 is greater than 500 µM.

**Q.** And the IC50 [3]?
**A.** Its IC50 is 21 ± 1.27 µM.

**Q.** What about the IC50 [4] of the same compound?
**A.** Its IC50 is 50.1 ± 2.71 µM.

**Q.** What about the IC50 [5] of the same compound?
**A.** Its IC50 is 30 ± 2.09 µM.

**Q.** `O=C(O)Cc1ccccc1Nc1c(Cl)cccc1Cl` [diclofenac] was tested. Which Km [6] did it give?
**A.** The Km was 41.9 µM.

**Q.** How did the Km [7] turn out when `Cc1ncc2n1-c1ccc(Cl)cc1C(c1ccccc1F)=NC2` [midazolam] was run?
**A.** Its Km is 13.9 µM.
